Data published in patent US20250270648A1, “MOLECULAR SIGNATURE FOR ASSESSING THE RESPONSIVENESS OF CANCER TO MITOCHONDRIA-TARGETED ANTIOXIDANTS” (UNIVERSITÉ CATHOLIQUE DE LOUVAIN, priority 2021, published 2025).

What was measured:
4T1 breast tumors = assay: 4T1-bearing mice, doxorubicin ±MitoTEMPO; assay type: in vivo, mouse; conditions: doxorubicin 4 mg/kg i.v. weekly ×3 + MitoTEMPO 0.7 mg/kg i.p. daily; lungs day +21
Procedure: On day −8, nine-week-old female Balb/cJRj mice (Janvier®) were injected with 200,000 viable 4T1 cells into the fourth mammary fat pad. When tumors reached an average diameter of 4 mm (day 0) and became palpable in all mice, an intravenous injection of doxorubicin (4 mg/kg) was administered once per week during 3 weeks (30) ±daily intraperitoneal injections of MitoTEMPO (0.7 mg/kg) or the same volume of vehicle (DMSO) until the end of the experiment. Tumor volume was determined three times a week using an electronic caliper and normalized to tumor volume at day 0. At the end-point (day +21), mice were sacrificed and their lungs were fixed in formalin. Tissues were stained with hematoxylin & eosin (H&E). Pictures of whole lung slides were acquired with a slide scanner (SCN400, Leica®) and analyzed with the Digital Image Hub software (DIH, Leica®). The area occupied by metastases was normalized to the lung area analyzed.

MDA-MB-436 cells = assay: RT-qPCR of biomarker signature after SKQ1; assay type: cell-based, human; conditions: 500 nM SKQ1, 48 h
MDA-MB-231 cells = assay: RT-qPCR of biomarker signature after SKQ1; assay type: cell-based, human; conditions: 500 nM SKQ1, 48 h
Procedure: (§1) Total mRNA from MDA-MB-231 or SkBr-3 human breast cancer cells treated ±500 nM SKQ1 for 48 h (Alexandr V. et al. Int. J. Cancer 2016; 139, 130-139) was extracted using the Tri reagent (Brunschwig Chemie®, cat #TR118). mRNAs were quantified by NanoDrop™1000 (Thermo Fisher Scientific®), and were reverse-transcribed in complementary DNAs using the high-capacity cDNA Reverse Transcription Kit (Thermo Fisher Scientific®, cat #4368814) according to manufacturer's protocol. Complementary DNAs (500 ng per sample) were amplified by RT-qPCR using the ROX SYBR Master Mix dTTP Blue (Eurogentec®) and primers listed in Table 5 and Table 6 on a CFX96 Real Time PCR system (BioRad®). Gene expression was normalized to […] gene expression.

SkBr3 cells = assay: RT-qPCR of biomarker signature after SKQ1; assay type: cell-based, human; conditions: 500 nM SKQ1, 48 h
Procedure: as §1

4T1 cells [1] = assay: Migration towards 0.5% serum, chemotaxis chamber; assay type: cell-based, mouse; conditions: 16 h pretreatment, 6 h recovery
Procedure: (§2) Previous to migration and invasion assays, cells were pretreated with the indicated amounts of drugs for 16 h, and left to recover for 6 h in full culture medium. Migration assays were performed in a NeuroProbe® standard 48-well chemotaxis chamber according to manufacturer's instructions. Briefly, the bottom chamber was filled with DMEM containing 0.5% serum as a chemo-attractant. Fifty thousand cells were seeded in the upper chamber in the same medium but without serum ±MitoQ where indicated, and allowed to migrate overnight through an 8-μm pore-size polycarbonate membrane. A similar stimulation protocol was used for invasion assays, with the difference of using Matrigel-coated transwells (Corning®). With MCF7 cells, membranes were previously incubated for 30 min with a solution of Vitronectin 10 μg/ml (Sigma-Aldrich®, #SRP3186). Migrated/invaded cells were fixed and stained with 100 μl of a 0.23% crystal violet solution (Sigma-Aldrich®, #C0775) for 10 min before counting on a SpectraMax™ i3 spectrophotometer equipped with a MiniMax imaging cytometer, using the SoftMax Pro software. Data were normalized to vehicle-treated cells (control).

[2] = test system: human MDA-MB-231 breast cancer cell line; assay: Mitochondrial superoxide, mitoSOX FACS; assay type: cell-based; conditions: increasing doses of cisplatin, 48 h
Procedure: (§3) Mitochondrial superoxide was measured in cells loaded with 3 μM of MitoSOX (Invitrogen®, catalogue #M36008) for 10 min at 37° C. Cells were gently detached with Accutase® (Thermo Fisher Scientific®, catalogue #A1110501), resuspended in PBS containing 10 mM of D-Glucose and 2% FBS, and immediately analyzed by flow cytometry using a FACSCantoII flow cytometer (BD Biosciences®).

[3] = test system: murine 4T1 breast cancer cell line; assay: Mitochondrial superoxide, mitoSOX FACS; assay type: cell-based, mouse
Procedure: as §3

MCF7 cells [4] = assay: Migration towards 0.5% serum, chemotaxis chamber; assay type: cell-based, human; conditions: low dose DXR, 0.1 μg/mL, 16 h pretreatment, 6 h recovery
Procedure: as §2

4T1 cells [5] = assay: Invasion, Matrigel-coated transwells; assay type: cell-based, mouse; conditions: low dose DXR, 0.1 μg/mL, 16 h pretreatment, 6 h recovery
Procedure: as §2

MCF7 cells [6] = assay: Glucose uptake and lactate release, enzymatic; assay type: cell-based, human; conditions: 24 h
Procedure: (§4) Cellular oxygen consumption rates (OCRs) were assessed on a Seahorse XF96® bioenergetic analyzer using the Mito Stress® Kit following manufacturer's instructions (Agilent Technologies®). Briefly, 40,000 cells were plated and left to adhere for 24 h before treatment with the indicated doses DXR. Basal mitochondrial oxygen consumption (mtOCR) was identified as the portion of OCR sensitive to 0.5 μM of Complex I inhibitor rotenone together with 0.5 μM of Complex III inhibitor antimycin A. Proton leak corresponded to the portion of mtOCR resistant to 1 μM of ATP synthase inhibitor oligomycin. Maximal OCR was determined after mitochondrial potential disruption using 1 μM of ionophore carbonyl cyanide-4-(trifluoromethoxy)phenylhydrazone (FCCP). At the end of the experiment, cells were lysed in 30 μl of NaOH 0.5 M, and proteins were quantified with the Bradford method in order to normalize data by total protein content. Lactate and glucose concentrations were measured on deproteinized cell supernatants using an ISCUSflex CMA600™ analyzer (Aurora Borealis®), as previously described (Sonveaux et al.; PLoS. One 2012; 7, e33418).

[7] = test system: murine 4T1 breast cancer cells; assay: Seahorse XF96 OCR and proton leak; assay type: cell-based, mouse; conditions: 24 h
Procedure: as §4

[8] = test system: human MCF7 breast cancer cells; assay: Seahorse XF96 OCR and proton leak; assay type: cell-based; conditions: 24 h
Procedure: as §4

4T1 cells [9] = assay: Glucose uptake and lactate release, enzymatic; assay type: cell-based, mouse; conditions: DXR 0.1 μg/mL, 24 h
Procedure: as §4

MCF7 cells [10] = assay: Mitochondrial superoxide, mitoSOX FACS; assay type: cell-based, human; conditions: DXR 0.1 μg/mL, 24 h
Procedure: as §3

Structure (SMILES): CC1(C)CC(NC(=O)C[P+](c2ccccc2)(c2ccccc2)c2ccccc2)CC(C)(C)N1[O] [MitoTEMPO]
- cancer metastasis in breast cancer-bearing animals treated with DXR (4T1 breast tumors): inhibit

Structure (SMILES): CC1=C(C)C(=O)C(CCCCCCCCCC[P+](c2ccccc2)(c2ccccc2)c2ccccc2)=CC1=O.[Br-] [SKQ1, [10-(4,5-dimethyl-3,6-dioxo-1,4-cyclohexadien-1-yl)decyl]triphenyl-phosphonium, monobromide]
- amplitude of the change in ASNS expression (MDA-MB-436 cells): +526%
- amplitude of the change in G6PD expression (MDA-MB-436 cells): +22%
- amplitude of the change in SNAI1 expression (MDA-MB-436 cells): −12%
- amplitude of the change in SOX2 expression (MDA-MB-436 cells): −67%
- genes of the complete biomarker signature with the expected gene expression changes (MDA-MB-436 cells): 14 of the 15
- PHGDH-1 expression increased by (MDA-MB-436 cells; P<0.005): 2.51 fold
- PSAT1 expression increased by (MDA-MB-436 cells; P<0.005): 2.53 fold
- TXNRD1 expression increased by (MDA-MB-436 cells; P<0.005): 2.11 fold
- gene expression of ASNS (MDA-MB-436 cells; P<0.005): increased
- gene expression of NUPR1 (MDA-MB-436 cells; P<0.005): increased
- gene expression of PCK2 (MDA-MB-436 cells; P<0.005): increased
- gene expression of SLC6A9 (MDA-MB-436 cells; P<0.005): increased
- SERPINE1 expression increased by (MDA-MB-436 cells; P<0.01): 1.46 fold
- SLC7A11 expression increased by (MDA-MB-436 cells; P<0.01): 3.60 fold
- gene expression of SOX2 (MDA-MB-436 cells; P<0.05): decreased
- expected gene expression changes that were statistically significant (MDA-MB-436 cells; among 14 genes): 10
- gene expression of G6PD (MDA-MB-436 cells; not significant, P=0.0974): increased
- gene expression of NANOG (MDA-MB-436 cells; not significant, P=0.5663): decreased
- gene expression of SNAI1 (MDA-MB-436 cells; not significant, P=0.6013): decreased
- gene expression of ZEB1 (MDA-MB-436 cells; not significant, P=0.6890): decreased
- amplitude of the change in NUPR1 expression (MDA-MB-231 cells): +676%
- amplitude of the change in SERPIN1 expression (MDA-MB-231 cells): +63%
- amplitude of the change in SNAI1 expression (MDA-MB-231 cells): −21%
- amplitude of the change in SOX2 expression (MDA-MB-231 cells): −52%
- genes of the complete biomarker signature with the expected gene expression changes (MDA-MB-231 cells): 12 of the 15
- PHGDH-1 expression increased by (MDA-MB-231 cells; P<0.005): 5.36 fold
- PSAT1 expression increased by (MDA-MB-231 cells; P<0.005): 3.43 fold
- SLC7A11 expression increased by (MDA-MB-231 cells; P<0.005): 2.35 fold
- TXNRD1 expression increased by (MDA-MB-231 cells; P<0.005): 1.69 fold
- gene expression of ASNS (MDA-MB-231 cells; P<0.005): increased
- gene expression of G6PD (MDA-MB-231 cells; P<0.005): increased
- gene expression of NUPR1 (MDA-MB-231 cells; P<0.005): increased
- gene expression of PCK2 (MDA-MB-231 cells; P<0.005): increased
- gene expression of SLC6A9 (MDA-MB-231 cells; P<0.005): increased
- gene expression of SOX2 (MDA-MB-231 cells; P<0.005): decreased
- SERPINE1 expression increased by (MDA-MB-231 cells; P<0.01): 1.63 fold
- expected gene expression changes that were statistically significant (MDA-MB-231 cells; among 12 genes): 11
- gene expression of SNAI1 (MDA-MB-231 cells; not significant, P=0.4575): decreased
- amplitude of the change in NUPR1 expression (SkBr3 cells): +25%
- amplitude of the change in SLC7A11 expression (SkBr3 cells): +565%
- amplitude of the change in SOX2 expression (SkBr3 cells): −95%
- amplitude of the change in VIM expression (SkBr3 cells): −19%
- genes of the complete biomarker signature with the expected gene expression changes (SkBr3 cells): 13 of the 15
- SLC7A11 expression increased by (SkBr3 cells; P<0.005): 6.65 fold
- TXNRD1 expression increased by (SkBr3 cells; P<0.005): 3.20 fold
- gene expression of PCK2 (SkBr3 cells; P<0.005): increased
- gene expression of SOX2 (SkBr3 cells; P<0.005): decreased
- PHGDH-1 expression increased by (SkBr3 cells; P<0.01): 2.26 fold
- PSAT1 expression increased by (SkBr3 cells; P<0.01): 2.26 fold
- gene expression of ASNS (SkBr3 cells; P<0.01): increased
- gene expression of ZEB1 (SkBr3 cells; P<0.05): decreased
- SERPINE1 expression increased by (SkBr3 cells; P=0.0732): 1.45 fold
- expected gene expression changes that were statistically significant (SkBr3 cells; among 13 genes): 8
- gene expression of NANOG (SkBr3 cells; not significant, P=0.1539): decreased
- gene expression of NUPR1 (SkBr3 cells; not significant, P=0.2615): increased
- gene expression of VIM (SkBr3 cells; not significant, P=0.3557): decreased
- gene expression of G6PD (SkBr3 cells; only 2 replicates): increased

Structure (SMILES): N.N.[Cl][Pt][Cl] [cisplatin]
- cancer cell migration (4T1 cells [1]; cisplatin 77.76 μM): induced
- mitochondrial superoxide production at the ETC [2]: induce
- mitochondrial superoxide production at the ETC ([3]; increasing doses of cisplatin, 48 h): induce

Structure (SMILES): COc1cccc2c1C(=O)c1c(O)c3c(c(O)c1C2=O)C[C@@](O)(C(=O)CO)C[C@@H]3O[C@H]1C[C@H](N)[C@H](O)[C@H](C)O1 [doxorubicin]
- cell migration (4T1 cells [1]; low dose DXR, 0.1 μg/mL): stimulated
- cell migration (MCF7 cells [4]): stimulated
- cell invasion (4T1 cells [5]): stimulated
- glucose uptake (MCF7 cells [6]; DXR 0.1 μg/mL): significantly increasing
- glycolysis (MCF7 cells [6]; DXR 0.1 to 0.01 μg/mL range): little effect
- mtOCR ([7]; Low-dose DXR): increased
- leak of protons at the electron transport chain (ETC) ([7]; increasing doses of DXR): dose dependent leak
- mitochondrial oxygen consumption rate (mtOCR) ([8]; DXR low doses, 0.1 to 0.01 μg/mL): increased
- leak of protons at the electron transport chain (ETC) ([8]; increasing doses of DXR): dose dependent leak
- production of mitochondrial superoxide at the ETC ([3]; DXR 0.1 μg/mL, 24 h): increased production
- glycolysis (4T1 cells [9]): little effect
- lactate release (4T1 cells [9]): significantly decreasing
- production of mitochondrial superoxide at the ETC (MCF7 cells [10]): increased production
